From US8242275B2, “Bicyclic pyrazole compounds as antibacterial agents” (Janssen Pharmaceutica NV, priority 2005, dated 2012)
Converted amounts (≈) assume the structure as drawn. Where two headings read alike, the source gives them in different places.

Columns and labels:
CipR MRSA OC3946 = experiment: Resistant strains assay (broth microdilution MIC); assay type: cell-based; conditions: Staphylococcus aureus; CipR MRSA OC3946; read-out: MIC, Column E
Protocol: (§1) Compounds of the present invention were tested for activity against susceptible and resistant bacterial strains in vitro, and activity was compared to known anti-bacterial agents. Testing protocols followed NCCLS methodology for broth microdilution assays. MIC values in μg/mL are presented in Table 3 for the following strains: Column A: MSSA ATCC13709 (Smith); Column B: MSSA ATCC 29213; Column C: MRSA OC3726 (COL); Column D: MRSA OC2878.
MIC values in μg/mL are presented in Table 4 for the following strains: Column E: CipR MRSA OC3946; Column F: CipR MRSA OC4159; Column G: CipR MRSA OC4222; Column H: CipR MRSA OC5273.

MSSA ATCC 29213 = experiment: Resistant strains assay (broth microdilution MIC); assay type: cell-based; conditions: Staphylococcus aureus, read-out: MIC, Column B
Protocol: as §1

MSSA ATCC13709 (Smith) = experiment: Resistant strains assay (broth microdilution MIC); assay type: cell-based; conditions: Staphylococcus aureus
Protocol: as §1

CipR MRSA OC5273 = experiment: Resistant strains assay (broth microdilution MIC); assay type: cell-based; conditions: Staphylococcus aureus, read-out: MIC, Column H
Excerpt: (§2) Testing protocols followed NCCLS methodology for broth microdilution assays.

CipR MRSA OC4222 = experiment: Resistant strains assay (broth microdilution MIC); assay type: cell-based; conditions: Staphylococcus aureus; CipR MRSA OC4222; read-out: MIC, Column G
Excerpt: as §2

MRSA OC2878 = experiment: Resistant strains assay (broth microdilution MIC); assay type: cell-based; conditions: Staphylococcus aureus; MRSA OC2878; read-out: MIC, Column D
Excerpt: as §2

CipR MRSA OC4159 = experiment: Resistant strains assay (broth microdilution MIC); assay type: cell-based; conditions: Staphylococcus aureus, read-out: MIC, Column F
Excerpt: as §2

MRSA OC3726 (COL) = experiment: Resistant strains assay (broth microdilution MIC); assay type: cell-based; conditions: Staphylococcus aureus; MRSA OC3726 (COL); read-out: MIC, Column C
Excerpt: as §2

E. coli topoisomerase IV = target: T1, E. coli topoisomerase IV (Escherichia coli, UniProt P0AFI2+P20083); experiment: Topoisomerase IV inhibition assay (relaxation); assay type: biochemical
T1 construct: purchased John Innes Enterprises Ltd. (John Innes Centre, UK)
T1 sequence (P0AFI2 whole entry): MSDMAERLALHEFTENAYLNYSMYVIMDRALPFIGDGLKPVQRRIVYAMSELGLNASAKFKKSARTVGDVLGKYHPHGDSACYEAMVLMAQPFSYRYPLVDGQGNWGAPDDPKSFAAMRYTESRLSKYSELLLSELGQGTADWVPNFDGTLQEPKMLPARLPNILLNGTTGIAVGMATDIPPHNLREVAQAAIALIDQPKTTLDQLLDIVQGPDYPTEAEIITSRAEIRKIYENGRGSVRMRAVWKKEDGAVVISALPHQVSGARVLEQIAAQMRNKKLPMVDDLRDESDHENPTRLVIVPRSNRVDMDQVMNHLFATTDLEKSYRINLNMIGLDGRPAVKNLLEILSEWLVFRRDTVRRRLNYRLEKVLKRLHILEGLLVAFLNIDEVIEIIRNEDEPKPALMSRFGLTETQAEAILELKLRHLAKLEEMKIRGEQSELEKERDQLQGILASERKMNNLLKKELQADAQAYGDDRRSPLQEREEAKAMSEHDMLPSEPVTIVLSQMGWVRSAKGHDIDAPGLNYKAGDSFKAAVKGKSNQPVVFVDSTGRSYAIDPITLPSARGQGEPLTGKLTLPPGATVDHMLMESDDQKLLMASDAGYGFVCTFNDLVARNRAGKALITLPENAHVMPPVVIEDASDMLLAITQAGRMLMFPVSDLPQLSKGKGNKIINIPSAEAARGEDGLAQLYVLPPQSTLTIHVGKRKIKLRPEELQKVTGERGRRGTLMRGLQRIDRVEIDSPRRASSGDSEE
T1 sequence (P20083 whole entry): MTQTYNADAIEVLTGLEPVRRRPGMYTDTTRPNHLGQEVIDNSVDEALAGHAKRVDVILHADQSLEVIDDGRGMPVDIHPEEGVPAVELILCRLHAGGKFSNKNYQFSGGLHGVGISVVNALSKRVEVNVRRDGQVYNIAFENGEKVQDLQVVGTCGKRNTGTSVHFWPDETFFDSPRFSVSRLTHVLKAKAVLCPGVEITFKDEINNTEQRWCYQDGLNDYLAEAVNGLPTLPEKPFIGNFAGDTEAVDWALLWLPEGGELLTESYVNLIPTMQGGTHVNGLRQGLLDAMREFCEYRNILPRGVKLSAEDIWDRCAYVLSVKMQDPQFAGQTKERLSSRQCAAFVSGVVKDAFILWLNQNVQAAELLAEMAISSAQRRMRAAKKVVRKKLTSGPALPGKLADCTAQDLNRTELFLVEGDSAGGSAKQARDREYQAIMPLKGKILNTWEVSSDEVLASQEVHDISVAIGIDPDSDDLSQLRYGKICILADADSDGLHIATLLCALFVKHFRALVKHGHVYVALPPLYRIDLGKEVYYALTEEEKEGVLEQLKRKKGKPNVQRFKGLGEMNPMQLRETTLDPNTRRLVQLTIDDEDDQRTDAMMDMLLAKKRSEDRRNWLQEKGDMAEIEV
Protocol: Inhibition of the relaxation activity of E. coli topoisomerase IV was determined using enzyme, buffers and substrates received from John Innes Enterprises Ltd. (John Innes Centre, UK). The reactions were performed according to the manufacturer's directions, with the following modifications.
DNA relaxation reactions were carried out in a total reaction volume of 20 μL, containing 300 ng of supercoiled pBR322, 40 mM HEPES-KOH (pH 7.6), 100 mM potassium glutamate, 10 mM Mg(OAc)2, 10 mM DTT, 4 μg/mL tRNA, 2 mM ATP, and 50 μg/mL BSA. Compounds, diluted in 10% DMSO, were added to the reaction mixture to reach a final concentration of 0.5% DMSO. Enzyme was diluted to 0.45 unit/μL in a solution of 40 mM HEPES-KOH (pH 7.6), 150 mM potassium glutamate, 1 mM DTT, 1 mM EDTA, and 40% glycerol. Diluted enzyme (0.9 unit) was added to each reaction.
The reactions were incubated at 37° C. for 45 min. The reactions were then cooled to 0° C. followed by addition of 3 μL of 40% glycerol, 100 mM Tris-HCl (pH 7.5), 50 mM EDTA, 0.5% SDS and 0.1% bromophenol blue. Samples were separated on 1.0% agarose gels. Gels were stained with Ethidium bromide and photographed with a Stratagene Eagle Eye II.

[1] = system: E. coli KL-16 (GSC strain 4245); experiment: In vitro antibacterial activity (MIC assay), broth microdilution; assay type: cell-based; conditions: Escherichia coli
In short: (§3)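 Broth microdilution per NCCLS M7-A5: 11-point 2-fold compound dilutions from DMSO stocks, inoculum about 5×10^5 CFU/mL, incubation 35° C for 16–24 h. MIC scored visually against no-compound growth controls, in μg/mL.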

S. pneumoniae ATCC49619 = experiment: as above; assay type: cell-based; conditions: Streptococcus pneumoniae, ATCC49619; read-out: S. pneumoniae ATCC49619 MIC
In short: as §3

S. aureus ATCC13709 = experiment: as above; assay type: cell-based
In short: as §3

E. coli DNA gyrase = target: T2, E. coli DNA gyrase (Escherichia coli, UniProt P0AES4+P0AES6); experiment: DNA gyrase inhibition assay (supercoiling); assay type: biochemical
T2 construct: purchased John Innes Enterprises Ltd. (John Innes Centre, UK)
T2 sequence (P0AES4 whole entry, one chain of several): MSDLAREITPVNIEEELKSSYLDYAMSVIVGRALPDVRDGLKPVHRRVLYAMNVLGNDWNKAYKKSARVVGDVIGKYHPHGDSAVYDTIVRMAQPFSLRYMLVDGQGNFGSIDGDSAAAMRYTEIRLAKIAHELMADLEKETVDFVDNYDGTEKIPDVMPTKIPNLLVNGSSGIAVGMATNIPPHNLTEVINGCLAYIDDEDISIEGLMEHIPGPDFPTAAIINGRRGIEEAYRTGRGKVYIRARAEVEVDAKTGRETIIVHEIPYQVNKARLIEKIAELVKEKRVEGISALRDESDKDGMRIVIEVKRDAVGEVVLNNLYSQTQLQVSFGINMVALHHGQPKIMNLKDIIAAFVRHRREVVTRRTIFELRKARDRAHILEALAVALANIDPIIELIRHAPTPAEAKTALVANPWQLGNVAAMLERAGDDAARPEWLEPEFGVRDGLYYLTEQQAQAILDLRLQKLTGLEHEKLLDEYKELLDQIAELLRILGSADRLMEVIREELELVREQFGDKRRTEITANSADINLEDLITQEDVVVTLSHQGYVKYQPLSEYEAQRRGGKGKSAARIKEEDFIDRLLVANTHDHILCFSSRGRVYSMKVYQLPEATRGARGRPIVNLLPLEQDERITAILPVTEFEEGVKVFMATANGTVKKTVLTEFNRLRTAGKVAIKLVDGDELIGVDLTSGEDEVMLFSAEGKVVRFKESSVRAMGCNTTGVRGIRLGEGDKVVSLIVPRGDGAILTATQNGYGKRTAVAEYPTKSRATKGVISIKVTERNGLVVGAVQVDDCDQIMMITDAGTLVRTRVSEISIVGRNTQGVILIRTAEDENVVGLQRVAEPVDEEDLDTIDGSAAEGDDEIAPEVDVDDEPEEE
In short: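 Relaxed pBR322 (250 ng) was supercoiled by 0.2 unit gyrase in Tris-HCl pH 7.5, KCl, MgCl2, DTT, spermidine, 1 mM ATP, glycerol, albumin, 0.5% DMSO final, 30 min at 37° C. Products were resolved on 1.0% agarose gels with ethidium bromide staining.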

[2] = E. coli topoisomerase IV relaxation, visual inspection of gels, read-out: Topoisomerase IV IC50 (converted)
[3] = Staphylococcus aureus, ATCC13709; read-out: S. aureus ATCC13709 MIC
[4] = E. coli DNA gyrase supercoiling, visual inspection of gels, read-out: DNA Gyrase IC50 (converted)

Row | Structure (SMILES) | MIC (CipR MRSA OC3946) | MIC (MSSA ATCC 29213) | MIC (MSSA ATCC13709 (Smith)) | MIC (CipR MRSA OC5273) | MIC (CipR MRSA OC4222) | MIC (MRSA OC2878) | MIC (CipR MRSA OC4159) | MIC (MRSA OC3726 (COL)) | IC50 (E. coli topoisomerase IV; [2]) | MIC [1] | MIC (S. pneumoniae ATCC49619) | MIC (S. aureus ATCC13709; [3]) | IC50 (E. coli DNA gyrase; [4]) | MIC (S. aureus ATCC13709; Staphylococcus aureus, ATCC13709, read-out: S. aureus ATCC13709 MIC) | IC50 (E. coli DNA gyrase) | IC50 (E. coli topoisomerase IV)
1 | O=C(O)c1cn(C2CC2)c2cc(N3CCNCC3)c(F)cc2c1=O [Ciprofloxacin, reference compound] | 16 µg/mL (≈ 48.3 µM) | 0.25 to 0.5 µg/mL (≈ 0.754 to 1.51 µM) | 0.25 to 0.5 µg/mL (≈ 0.754 to 1.51 µM) | – | – | – | – | – | – | – | – | – | – | – | – | –
2 | COc1ccc2nccc(-n3cc4c(n3)CCC(NC(=O)c3cc5c(cc3F)SCC(=O)N5)C4)c2c1 (stereo not drawn) [Example 18, 7-Fluoro-3-oxo-3,4-dihydro-2H-benzo[1,4]thiazine-6-carboxylic acid [2-(6-methoxy-quinolin-4-yl)-4,5,6,7-tetrahydro-2H-indazol-5-yl]-amide] | 0.015 µg/mL (≈ 0.0298 µM) | 0.25 µg/mL (≈ 0.496 µM) | 0.031 µg/mL (≈ 0.0616 µM) | 0.062 µg/mL (≈ 0.123 µM) | 0.031 µg/mL (≈ 0.0616 µM) | 0.062 µg/mL (≈ 0.123 µM) | 0.031 µg/mL (≈ 0.0616 µM) | 0.062 µg/mL (≈ 0.123 µM) | 496 nM | 4 µg/mL (≈ 7.94 µM) | 1 µg/mL (≈ 1.99 µM) | 0.03 µg/mL (≈ 0.0596 µM) | – | – | – | –
3 | COc1ccc2nccc(-n3cc4c(n3)CCC(NC/C=C/c3ccccc3)C4)c2c1 (stereo not drawn) [Example 55, [2-(6-Methoxy-quinolin-4-yl)-4,5,6,7-tetrahydro-2H-indazol-5-yl]-(3-phenyl-allyl)-amine] | 0.5 µg/mL (≈ 1.22 µM) | 2 µg/mL (≈ 4.87 µM) | 0.5 µg/mL (≈ 1.22 µM) | 1 µg/mL (≈ 2.44 µM) | 0.25 µg/mL (≈ 0.609 µM) | 0.5 µg/mL (≈ 1.22 µM) | 0.5 µg/mL (≈ 1.22 µM) | 1 µg/mL (≈ 2.44 µM) | – | 64 µg/mL (≈ 156 µM) | 1 µg/mL (≈ 2.44 µM) | 0.5 µg/mL (≈ 1.22 µM) | – | – | – | –
4 | COc1ccc2nccc(-n3cc4c(n3)CCC(NC(=O)c3c(F)cc5c(c3F)NC(=O)CS5)C4)c2c1 (stereo not drawn) [Example 108, 5,7-Difluoro-3-oxo-3,4-dihydro-2H-benzo[1,4]thiazine-6-carboxylic acid [2-(6-methoxy-quinolin-4-yl)-4,5,6,7-tetrahydro-2H-indazol-5-yl]-amide] | – | – | – | – | 0.06 µg/mL (≈ 0.115 µM) | – | – | – | – | 8 µg/mL (≈ 15.3 µM) | 1 µg/mL (≈ 1.92 µM) | 0.125 µg/mL (≈ 0.24 µM) | 1920 nM | – | – | –
5 | COc1ccc2nccc(-n3cc4c(n3)CCC(NC(=O)c3c(F)cc5c(c3F)NC(=O)CS5)C4)c2n1 (stereo not drawn) [Example 109, 5,7-Difluoro-3-oxo-3,4-dihydro-2H-benzo[1,4]thiazine-6-carboxylic acid [2-(6-methoxy-[1,5]naphthyridin-4-yl)-4,5,6,7-tetrahydro-2H-indazol-5-yl]-amide] | – | – | – | – | 0.03 µg/mL (≈ 0.0574 µM) | – | – | – | – | > 128 µg/mL | 4 µg/mL (≈ 7.65 µM) | 0.125 µg/mL (≈ 0.239 µM) | 1910 nM | – | – | –
6 | COc1ccc2nccc(-n3cc4c(n3)CCC(NC(=O)c3cc5c(cc3Br)SCC(=O)N5)C4)c2n1 (stereo not drawn) [Example 113, 7-Bromo-3-oxo-3,4-dihydro-2H-benzo[1,4]thiazine-6-carboxylic acid [2-(6-methoxy-[1,5]naphthyridin-4-yl)-4,5,6,7-tetrahydro-2H-indazol-5-yl]-amide] | – | – | – | – | – | – | – | – | 442 nM | 2 µg/mL (≈ 3.54 µM) | 2 µg/mL (≈ 3.54 µM) | 0.125 µg/mL (≈ 0.221 µM) | 442 nM | – | – | –
7 | COc1ccc2nccc(-n3cc4c(n3)CCC(NC(=O)c3cc5c(cc3Br)SCC(=O)N5)C4)c2c1 (stereo not drawn) [Example 114, 7-Bromo-3-oxo-3,4-dihydro-2H-benzo[1,4]thiazine-6-carboxylic acid [2-(6-methoxy-quinolin-4-yl)-4,5,6,7-tetrahydro-2H-indazol-5-yl]-amide] | – | – | – | – | – | – | – | – | 221 nM | 2 µg/mL (≈ 3.54 µM) | 2 µg/mL (≈ 3.54 µM) | – | 886 nM | 0.125 µg/mL (≈ 0.221 µM) | – | –
8 | COc1ccc2nccc(-n3cc4c(n3)CCC(NC(=O)c3cc5c(cc3C(F)(F)F)SCC(=O)N5)C4)c2c1 (stereo not drawn) [Example 115, 3-Oxo-7-trifluoromethyl-3,4-dihydro-2H-benzo[1,4]thiazine-6-carboxylic acid [2-(6-methoxy-quinolin-4-yl)-4,5,6,7-tetrahydro-2H-indazol-5-yl]-amide] | – | – | – | – | – | – | – | – | 452 nM | 8 µg/mL (≈ 14.5 µM) | 8 µg/mL (≈ 14.5 µM) | 0.125 µg/mL (≈ 0.226 µM) | 1810 nM | – | – | –
9 | COc1ccc2nccc(-n3cc4c(n3)CCC(NC(=O)c3ccc5c(c3)NC(=O)CO5)C4)c2n1 (stereo not drawn) [Example 117, 3-Oxo-3,4-dihydro-2H-benzo[1,4]oxazine-6-carboxylic acid [2-(6-methoxy-[1,5]naphthyridin-4-yl)-4,5,6,7-tetrahydro-2H-indazol-5-yl]-amide] | – | – | – | – | – | – | – | – | 531 nM | 4 µg/mL (≈ 8.5 µM) | 8 µg/mL (≈ 17 µM) | 0.125 µg/mL (≈ 0.266 µM) | 2130 nM | – | – | –
10 | COc1ccc2nccc(-n3cc4c(n3)CCC(NCCOc3cc(F)cc(F)c3)C4)c2c1 (stereo not drawn) [Example 121] | – | – | – | – | – | – | – | – | – | 8 µg/mL (≈ 17.8 µM) | 2 µg/mL (≈ 4.44 µM) | 1 µg/mL (≈ 2.22 µM) | – | – | 1110 nM | 277 nM
11 | COc1ccc2nccc(-n3cc4c(n3)CCC(NC(=O)c3cc5c(cc3C)SCC(=O)N5)C4)c2c1 (stereo not drawn) [Example 131, 7-Methyl-3-oxo-3,4-dihydro-2H-benzo[1,4]thiazine-6-carboxylic acid [2-(6-methoxy-quinolin-4-yl)-4,5,6,7-tetrahydro-2H-indazol-5-yl]-amide] | – | – | – | – | 0.5 µg/mL (≈ 1 µM) | – | – | – | – | 8 µg/mL (≈ 16 µM) | 16 µg/mL (≈ 32 µM) | 0.5 µg/mL (≈ 1 µM) | – | – | – | –
12 | CCn1cc(C(=O)O)c(=O)c2cc(F)c(N3CCNCC3)cc21 [Norfloxacin, reference compound] | 128 µg/mL (≈ 401 µM) | 2 µg/mL (≈ 6.26 µM) | 1 µg/mL (≈ 3.13 µM) | > 128 µg/mL | > 128 µg/mL | 1 µg/mL (≈ 3.13 µM) | > 128 µg/mL | 2 µg/mL (≈ 6.26 µM) | – | – | – | – | – | – | – | –
13 | C[C@@H]1CN(c2c(F)c(N)c3c(=O)c(C(=O)O)cn(C4CC4)c3c2F)C[C@H](C)N1 [Sparfloxacin, reference compound] | 4 µg/mL (≈ 10.2 µM) | 0.062 µg/mL (≈ 0.158 µM) | 0.062 µg/mL (≈ 0.158 µM) | 16 µg/mL (≈ 40.8 µM) | 8 µg/mL (≈ 20.4 µM) | 0.062 µg/mL (≈ 0.158 µM) | 16 µg/mL (≈ 40.8 µM) | 0.125 µg/mL (≈ 0.319 µM) | – | – | – | – | – | – | – | –
